The record followed here is US7928231B2, “Thienopyrazoles” (priority 2003, dated 2011).

For data set [1], the target named is T1, ITK (Homo sapiens, UniProt Q08881).
T1 construct: made in house
T1 sequence (Q08881 1-620): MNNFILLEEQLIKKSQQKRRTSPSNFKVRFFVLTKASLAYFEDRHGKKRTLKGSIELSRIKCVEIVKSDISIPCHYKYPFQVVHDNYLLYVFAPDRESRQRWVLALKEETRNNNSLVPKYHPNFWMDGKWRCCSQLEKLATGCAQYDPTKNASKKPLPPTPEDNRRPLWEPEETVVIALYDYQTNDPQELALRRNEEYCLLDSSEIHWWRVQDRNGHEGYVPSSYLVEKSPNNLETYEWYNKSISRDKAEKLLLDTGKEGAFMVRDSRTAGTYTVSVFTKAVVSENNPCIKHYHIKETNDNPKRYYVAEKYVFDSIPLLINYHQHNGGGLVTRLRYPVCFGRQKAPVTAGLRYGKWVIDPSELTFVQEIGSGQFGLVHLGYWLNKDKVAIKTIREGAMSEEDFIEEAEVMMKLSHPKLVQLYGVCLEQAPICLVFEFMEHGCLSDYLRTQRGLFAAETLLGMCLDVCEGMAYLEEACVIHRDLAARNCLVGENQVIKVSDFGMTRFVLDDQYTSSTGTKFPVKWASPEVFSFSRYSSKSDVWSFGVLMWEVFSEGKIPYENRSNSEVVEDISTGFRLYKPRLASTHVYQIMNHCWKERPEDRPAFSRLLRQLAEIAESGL
The data set can be described thus: FlashPlate ITK protocol for ITK inhibition determination (ITK autophosphorylation, [γ-33P]ATP). The class given is biochemical. The settings on record: MBP-tagged ITK, read-out: IC50 (enzyme inhibition)-. On the procedure:
ITK kinase is produced with an N-terminal Maltose Binding Protein tag (MW=˜114 kDa) using a Baculovirus expression system. The transfer of radioactive [γ-^33P] phosphate from [γ-^33P]ATP to ITK during the autophosphorylation of ITK is measured by scintillation counting. Streptavidin-coated FlashPlate Plus™ 384 well microplates (PerkinElmer Life Sciences) are designed for in-plate radiometric assays. The interior of each well is permanently coated with a thin layer of scintillant and a covalently bound layer of Streptavidin. ITK is incubated with [γ-^33P]ATP, biotinylated anti-MBP antibody (Cell Signaling Technology™) and test compounds in a 384-well Streptavidin-coated FlashPlate. The biotinylated anti-MBP binds tightly to the MBP-tagged ITK and cross-links it to Streptavidin on the plate surface. Unreacted ^33P-ATP is washed away and ^33P-phosphorylated ITK is measured when the [γ-^33P] incorporated into ITK stimulates the scintillant on the well to emit light. Radioactivity is assessed in a Packard
TopCount scintillation counter. Reagents are pipetted and dispensed using Beckman Biomek robotic equipment. Test compounds (2 μl per well) are pre-diluted from 1 mM 100% dimethyl sulfoxide solutions into water containing 30% dimethyl sulfoxide to produce dose response curves (10 point curves from (final) 30 μM to ˜1 nM); all tests are performed in duplicate. Background binding is assessed by substituting the enzyme inhibitor EDTA (25 mM final concentration) for test compound and maximal binding is assessed by inclusion of assay buffer instead of compound. Test compounds are added to the wells first (2 μl) followed by 10 μl enzyme solution in assay buffer. After 30 minutes pre-incubation, all other reagents are added in a 10 μl volume. The final reagent concentrations/well are as follows: 20 nM enzyme, 0.25 μCi [γ-^33P]ATP, assay buffer: 20 mM HEPES (pH 7.5), 0.15 M NaCl, 3 mM MgCl2, 3 mM MnCl2, 0.01% Triton X-100, 1 mM DTT, 5% glycerol and 0.01% γ-globulin. The plate is incubated at room temperature (RT) for 60 minutes for the kinase reaction. The reaction is stopped with 20 μl of 50 mM EDTA and the biotinylated anti-MBP is allowed to bind to the ITK and the Streptavidin for a further 60 minutes at RT. The unbound reagents are washed away with 2×100 μl phosphate-buffered saline (PBS). Radioactivity is measured for 45 sec/well.

The subject of data set [2] is IL-4 production from anti-CD3-stimulated murine splenocytes. The data set can be described thus: Anti-CD3 stimulated IL-4 assay from murine splenocytes. The class given is cell-based. The settings on record: Mus musculus, Splenocyte, 72 h; BALB/c splenocytes, anti-CD3 stimulation, 3 days, IL-4 ELISA; read-out: IC50 IL-4 release inhibition- assay. On the procedure: Anti-CD3 stimulated IL-4 Assay from Murine Splenocytes.
The tyrosine kinase ITK is involved in intracellular signaling events induced by several lymphocyte surface receptors. Since ITK deficient mice show an impairment in IL-4 production from T cells, a cell based assay for IL-4 production is used to measure the cellular potency of the ITK inhibitors of the present invention. In this assay the level of IL-4 is measured from the media of anti-CD3-stimulated murine splenocytes, and the ability of compounds of the present invention to inhibit this response is determined.
Spleens from the mouse strain BALB/c are isolated and used to prepare a suspension of mixed splenocytes. The spleens are homogenized with cell strainer (Falcon Cat#352350 and 5 ml syringe) in RPMI media. The mixture is spun down, and the pellets are suspended in 3 ml of Red Blood Cell Lysing Buffer (Sigma Cat#7757) and left for 10 minutes at room temperature. Cells are spun down again, and resuspended in RPMI with 10% FBS and passed through cell strainer. Total cell numbers are determined with hemocytometer.
Splenocytes are adjusted to a cell density of 10 million per ml of RPMI medium supplemented with 10% Foetal Bovine Serum (FBS) and 100 uls of the suspension plated out per well of a 96 round bottom plate. 50 uls of RPMI medium containing 4× the final concentration of test compound is added per well. For IC50 determination the following concentrations of compound are used. The starting concentration is 10 uM and 7 series of 1:3 dilutions are followed, and each compound concentration is set up in triplicate wells. 50 ul of 4× concentration are added. Cell cultures are then stimulated by addition of 50 ul of a 4 ug/ml solution of anti-CD3 antibody, (BD Bioscience Cat #553166) made up in RPMI plus 10% FBS media, and incubated in a 37° C. CO2 incubator for 3 days. At the end of the 3 day incubation, culture medium is taken and 50 uls used to assay IL-4 production by ELISA (IL-4 ELISA kit from R&D Systems, city. Cat #M4000 kit) according to the standard conditions described by the manufacturer.
IL-4 levels are plotted as a function of compound concentration. The concentration of compound resulting in 50% inhibition of IL-4, termed IC50(IL-4), is determined from the resulting curve.
Assay Procedure • 1. Add 100 ul of 1×10E7/ml mouse splenocytes in RPMI plus 10% FBS media to 96 well round bottom plates. • 2. Add 50 ul of Itk compounds (4× final concentration) in RPMI plus 10% FBS media • 3. Add 50 ul of 4 ug/ml anti-CD3 antibody in RPMI plus 10% FBS media • 4. Incubate at 37 c CO2 incubator for 3 days • 5. Transfer 150 ul culture media into fresh plate • 6. 50 ul of the media is subject to Elisa analysis (R & D Cat #M4000 kit) FlashPlate ITK Protocol for ITK Inhibition Determination
In general terms: ELISA stands for enzyme-linked immunosorbent assay.

Regarding `OC1CCCN(CCCOc2ccc3cc(-c4n[nH]c5cc(-c6ccccc6)sc45)[nH]c3c2)C1` (stereo not shown), the melting point was 213 to 216 °C.
As for `CCN1CCN(CCCOc2ccc3cc(-c4n[nH]c5ccsc45)[nH]c3c2)CC1` [Example 10, 6-[3-(4-Ethyl-piperazin-1-yl)-propoxy]-2-(1H-thieno[3,2-c]pyrazol-3-yl)-1H-indole], the figures for the concentration for half-maximal inhibition (IC50) in data set [1] and in data set [2] were 2.94 nM and 289 nM, respectively.
The matching figures for `COc1ccc2nc(-c3n[nH]c4ccsc34)[nH]c2c1` [Example 2, 6-Methoxy-2-(1H-thieno[3,2-c]pyrazol-3-yl)-1H-benzoimidazole]: 157 nM and 164 nM.
Take `OC1CCN(CCCOc2ccc3cc(-c4n[nH]c5cc(-c6ccccc6)sc45)[nH]c3c2)CC1`: the melting point was 239 to 242 °C.
For `c1cc2[nH]nc(-c3cc4cc(OCCCN5CCCCC5)ccc4[nH]3)c2s1` [Example 5, 5-(3-Piperidin-1-yl-propoxy)-2-(1H-thieno[3,2-c]pyrazol-3-yl)-indole], the half-inhibitory concentration (IC50) is 16.6 nM in data set [1] and 153 nM in data set [2].
`OC1CCCN(CCCOc2ccc3cc(-c4n[nH]c5ccsc45)[nH]c3c2)C1` (stereo not shown) [Example 8, 1-{3-[2-(1H-Thieno[3,2-c]pyrazol-3-yl)-1H-indol-6-yloxy]-propyl}-piperidin-3-ol]: the values for the half-inhibitory concentration (IC50) in data set [1] and in data set [2] were 1.62 nM and 11.3 nM, respectively.
On to `OC(c1ccc2cc(-c3n[nH]c4ccsc34)[nH]c2c1)(C1CC1)C1CC1`, for which the melting point was in the range of 110 to 112 °C.
`COc1ccc2[nH]c(-c3n[nH]c4ccsc34)cc2n1` [Example 60, 5-Methoxy-2-(1H-thieno[3,2-c]pyrazol-3-yl)-1H-pyrrolo[3,2-b]pyridine] displayed a melting point of 234 to 236 °C. For the same compound, the IC50 in data set [1] was determined as 224 nM.
With `OC1CCN(CCCOc2ccc3cc(-c4n[nH]c5ccsc45)[nH]c3c2)CC1` [Example 6, 1-{3-[2-(1H-Thieno[3,2-c]pyrazol-3-yl)-1H-indol-6-yloxy]-propyl}-piperidin-4-ol], the figures for the IC50 in data set [1] and in data set [2] were 3.65 nM and 180 nM, respectively.
The matching figures for `c1cc2[nH]nc(-c3cc4ccc(OCCCN5CCCCC5)cc4[nH]3)c2s1` [Example 7, 6-(3-Piperidin-1-yl-propoxy)-2-(1H-thieno[3,2-c]pyrazol-3-yl)-1H-indole]: 1.89 nM and 163 nM.
In the case of `COc1cccc(-c2cc3[nH]nc(-c4cc5ccc(OCCCN6CCC(O)CC6)cc5[nH]4)c3s2)c1`, the melting point lay within 205 to 207 °C.
Turning to `OCC1CCCN(CCCOc2ccc3cc(-c4n[nH]c5ccsc45)[nH]c3c2)C1` (stereo not shown) [Example 9, (1-{3-[2-(1H-Thieno[3,2-c]pyrazol-3-yl)-1H-indol-6-yloxy]-propyl}-piperidin-3-yl)-methanol], the results for the half-inhibitory concentration (IC50) in data set [1] and in data set [2] were 2.08 nM and 129 nM, respectively.
The corresponding values for `COc1ccc2nc(-c3n[nH]c4c3sc3ccccc34)[nH]c2c1` [Example 3, 3-(6-Methoxy-1H-benzimidazol-2-yl)-1H-benzo[4,5]thieno[3,2-c-]pyrazole] are 86 nM and 2900 nM.
For `O=C(c1cc2[nH]nc(-c3cc4cc(CO)ccc4[nH]3)c2s1)N1CCN(c2ccc(F)cc2)CC1`, the melting point was in the range of 156 to 158 °C.
Turning to `c1ccc2[nH]c(-c3n[nH]c4ccsc34)nc2c1` [Example 1, 2-(1H-Thieno[3,2-c]pyrazol-3-yl)-1H-benzimidazole], the IC50 in data set [1] stood at 167 nM; in data set [2], 264 nM.

What is called melting point is the temperature, or range, at which the solid turns liquid. In general, IC50 refers to the point on the concentration scale where inhibition reaches its midpoint.
